From US20210161890A1, “COMPOSITIONS AND METHODS FOR TREATING BRAIN DYSFUNCTION” (BACH PHARMA, INC., priority 2015, published 2021)
Where a name gives a salt, the structure may show the parent alone. Read-outs that look alike come from different tables or passages of the source.

Tests used:
GWI rats [1] = conditions: hippocampal tissue extracts
Description: (§1) Time-line of various procedures for animals in cohorts 1 and 2: Animals were exposed daily to GWIR-chemicals and stress for 28 days, and were subjected to a survival period of 4 months between exposure and treatment. The animals were then treated 5 times a week with 5-amino-2,3-dihydro-1,4-phthalazinedione or VEH for 8 weeks. […] Finally, euthanasia and tissue harvesting was performed after 8 weeks of treatment.
(§2) Exposure of animals to GWIR-chemicals and stress: Animals were exposed daily to the following chemicals for 28 days: pyridostigmine bromide (PB) at 2 mg/kg/day (via oral gavage), DEET at 60 mg/kg/day (via dermal application) and permethrin at 0.2 mg/kg/day (via dermal application). In addition, animals were subjected daily to 15 minutes of restraint stress using rat restrainers during the above 28-day period.
Survival period between exposure and treatment: Following the exposure to GMIR chemicals and stress, animals were maintained in the vivarium for four months in regular cages (two per cage) with ad libitum access to food and water. […]
Analyses of oxidative stress: The hippocampal tissues obtained from animals belonging to cohort 1 were used for the following measurements. […] Second, we measured lipid peroxidation through quantification of malondialdehyde. […]

GWI rats [2] = system: GWI rats
Description: Time-line of various procedures for animals in cohorts 1 and 2: Animals were exposed daily to GWIR-chemicals and stress for 28 days, and were subjected to a survival period of 4 months between exposure and treatment. The animals were then treated 5 times a week with 5-amino-2,3-dihydro-1,4-phthalazinedione or VEH for 8 weeks. […] The animals are then subjected to cognitive and mood function tests starting from the fifth week of treatment. Finally, euthanasia and tissue harvesting was performed after 8 weeks of treatment.
as §2
(§3) Survival period between exposure and treatment: Following the exposure to GMIR chemicals and stress, animals were maintained in the vivarium for four months in regular cages (two per cage) with ad libitum access to food and water. Administration of 5-amino-2,3-dihydro-1,4-phthalazinedione or VEH: Treatment was given for 8 weeks (5 times/week) via oral gavage, commencing in the 5th month after exposure to GMIR chemicals and stress. The doses of 5-amino-2,3-dihydro-1,4-phthalazinedione employed were 40 mg/kg, 80 mg/kg and 160 mg/kg.
(§4) Behavioral tests for assessing cognitive and mood function: We examined animals in all groups through stress-free behavioral tests. We used a Pattern Separation Test (PST) to assess cognitive function and a Sucrose Preference Test (SPT) to assess mood function.
This test comprised four days of monitoring. On day 1, rats were housed individually and given free access to two identical bottles containing 1% sucrose solution. Rats were trained to adapt to sucrose solution for 24 hours. On day 2, one bottle was replaced with a new bottle containing regular water for 24 hours. On day 3, rats were deprived of water and food for 23 hours, and then on day 4, rats were given free access to two bottles: one containing 100 ml of sucrose solution and another containing 100 ml of regular vyater. An hour later, the consumed volume in both bottles was recorded.

[3] = system: inflammatory cytokines in hippocampal tissues of GWI rats; conditions: hippocampal tissue;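 further: relative cytokine levels by 16-cytokine plate array in hippocampus of rats given 28 days of GWI-related chemicals plus restraint stress, treated after a 4-month interval, tissue harvested after 8 weeks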
Description: as §1, §2, §3
Analyses of inflammation: The hippocampal tissues obtained from animals belonging to cohort 1 were also used to measure the relative levels of inflammatory cytokines in different groups of animals. We employed the Rat Cytokine Plate Array from Signosis, which facilitated analyses of 16 rat cytokines in a high-throughput manner. The cytokines included: tumor necrosis factor-alpha (TNF-α), interleukin=1 alpha (IL-1α), interleukin-1 beta (IL-1β), vascular endothelial growth factor (VEGF), fibroblast growth factor beta (FGFβ), interferon gamma (IFNγ), interleukin=5 (IL-5), interleukin=6 (IL-6), interleukin=15 (IL-15), leptin, monocyte chemoattractant protein=1 (MCP-1), IFN-gamma-inducible protein 10 (IP-10 or CXCL10), stem cell factor (SCF), Regulated on Activation, Normal T Cell Expressed and Secreted (Rantes), Macrophage inflammatory protein 1 alpha (MIP-1α) and transforming growth factor-beta (TGFβ).
Analyses of inflammation: The hippocampal tissues obtained from animals were used for measurement of the relative levels of inflammatory cytokines in different groups of animals. We employed “The Rat Cytokine Plate Array” from Signosis, which facilitated analyses of 16 rat cytokines in a high-throughput manner. The cytokines included: TNF-α, IL-1α, IL-1β, VEGF, FGFβ, , IFNγ, IL-5, IL-6, IL-15, leptin, MCP-1, IP-10 (or CXCL10), SCF, Rantes, MIP-1α and TGFβ.

GWI rats [4] = conditions: for pattern separation ability (exploration of novel vs familiar object on P2): GWI rats
Description: The animals were then treated 5 times a week with 5-amino-2,3-dihydro-1,4-phthalazinedione or VEH for 8 weeks. […] The animals are then subjected to cognitive and mood function tests starting from the fifth week of treatment.
(§5) Administration of 5-amino-2,3-dihydro-1,4-phthalazinedione or VEH: Treatment was given for 8 weeks (5 times/week) via oral gavage, commencing in the 5th month after exposure to GMIR chemicals and stress. The doses of 5-amino-2,3-dihydro-1,4-phthalazinedione employed were 40 mg/kg, 80 mg/kg and 160 mg/kg.
as §4
In this test, each rat successively explored two different sets of identical objects (object types 1 and 2) placed on distinct types of floor patterns (Patterns 1 and 2 [P1 and P2]) for 5 minutes each in the two acquisition trials (separated by 30 minutes). Thirty minutes later, in the testing phase (Trial-3), each rat explored an object from trial 2 (which is now a familiar object) and an object from Trial-1 (which is now a novel object) placed on the floor pattern employed in trial 2 (P2).
FIGS. 1B-1F compare percentages of object exploration time spent with the familiar object on pattern 2 (Fa on P2) and the novel object on pattern 2 (NO of P2) in different animal groups (n=11-14/group).

[5] = system: oxidative stress response and antioxidant genes in the hippocampus of GWI rats
Description: The animals were then treated 5 times a week with 5-amino-2,3-dihydro-1,4-phthalazinedione or VEH for 8 weeks. […] Finally, euthanasia and tissue harvesting was performed after 8 weeks of treatment.
as §5
Analyses of oxidative stress: The hippocampal tissues obtained from animals belonging to cohort 1 were used for the following measurements. First, we analyzed the oxidative stress response and the expression of antioxidant genes using the Rat Oxidative Stress Response PCR Array from Qiagen. We analyzed the expression of 84 key genes involved in oxidative stress response and antioxidant activity in the hippocampus of animals belonging to different groups using quantitative real time PCR (qRT-PCR) to ascertain the effects of 5-amino-2,3-dihydro-1,4-phthalazinedione treatment on oxidative stress.
(i) Expression of oxidative stress response and antioxidant genes: We analyzed the expression of 84 key genes involved in oxidative stress response and antioxidant activity in the hippocampus of animals belonging to different groups using quantitative real time PCR (qRTPCR).

[6] = GWI + MSL 40 mg/Kg, oral gavage 5 times/week for 8 weeks
[7] = column headed GWI + MSL 160 mg/Kg, oral gavage 5 times/week for 8 weeks
[8] = last treatment column, head prints no dose, oral gavage 5 times/week for 8 weeks

Nc1cccc2c(=O)[nH][nH]c(=O)c12 [MSL, 5-amino-2,3-dihydro-1,4-phthalazinedione, monosodium salt]
MDA concentration (GWI rats [1]; 40 mg/kg, p<0.05): higher concentration of MDA than naive control rats
MDA concentration (GWI rats [1]; 160 mg/kg): reduced MDA concentration than GWI rats receiving VEH
preference for sucrose-containing water over regular water (GWI rats [2]; 40 mg/kg oral gavage): remained impaired
preference for sucrose-containing water over regular water (GWI rats [2]; 80 mg/kg oral gavage): exhibited a clear preference for drinking sucrose-containing water over regular water
preference for sucrose-containing water over regular water (GWI rats [2]; 160 mg/kg oral gavage): exhibited a clear preference for drinking sucrose-containing water over regular water
total volume (normal water+sucrose-containing water) consumed (GWI rats [2]; all dose groups vs naive and VEH, one-way ANOVA): did not show differences between groups
FGF-beta Mean ± S.E.M. [3, 6]: 0.17 ± 0.05
IFN-gamma Mean ± S.E.M. [3, 6]: 0.19 ± 0.05
IL-1alpha Mean ± S.E.M. [3, 6]: 0.17 ± 0.05
IL-1 beta Mean ± S.E.M. [3, 6]: 0.38 ± 0.05
IL-5 Mean ± S.E.M. [3, 6]: 0.19 ± 0.05
IL-6 Mean ± S.E.M. [3, 6]: 0.23 ± 0.05
IL-10 Mean ± S.E.M. [3, 6]: 0.085 ± 0.02
IL-15 Mean ± S.E.M. [3, 6]: 0.13 ± 0.05
LEPTIN Mean ± S.E.M. [3, 6]: 0.40 ± 0.05
MCP-1 Mean ± S.E.M. [3, 6]: 0.09 ± 0.05
MIP-1 alpha Mean ± S.E.M. [3, 6]: 0.06 ± 0.05
Rantes (CCL5) Mean ± S.E.M. [3, 6]: 0.15 ± 0.05
SCF Mean ± S.E.M. [3, 6]: 0.32 ± 0.05
TNF-alpha Mean ± S.E.M. [3, 6]: 0.15 ± 0.02
VEGF Mean ± S.E.M. [3, 6]: 0.19 ± 0.05
FGF-beta [3, 7]: 0.21 ± 0.03
IFN-gamma [3, 7]: 0.23 ± 0.03
IL-1alpha [3, 7]: 0.21 ± 0.03
IL-1 beta [3, 7]: 0.42 ± 0.06
IL-5 [3, 7]: 0.22 ± 0.03
IL-6 [3, 7]: 0.28 ± 0.02
IL-10 [3, 7]: 0.103 ± 0.02
IL-15 [3, 7]: 0.14 ± 0.02
LEPTIN [3, 7]: 0.50 ± 0.09
MCP-1 [3, 7]: 0.13 ± 0.02
MIP-1 alpha [3, 7]: 0.07 ± 0.01
Rantes (CCL5) [3, 7]: 0.17 ± 0.03
SCF [3, 7]: 0.36 ± 0.06
TNF-alpha [3, 7]: 0.19 ± 0.03
VEGF [3, 7]: 0.22 ± 0.03
concentration of MIP-1α ([3]; GWI rats, decreases not significant statistically): reduced the concentration of MIP-1α
concentration of 16 cytokines between groups ([3]; naive, GWI + VEH and GWI rats receiving different doses): no significant differences
FGF-beta Mean ± S.E.M. [3, 8]: 0.18 ± 0.03
IFN-gamma Mean ± S.E.M. [3, 8]: 0.28 ± 0.03
IL-1alpha Mean ± S.E.M. [3, 8]: 0.17 ± 0.01
IL-1 beta Mean ± S.E.M. [3, 8]: 0.39 ± 0.06
IL-5 Mean ± S.E.M. [3, 8]: 0.19 ± 0.04
IL-6 Mean ± S.E.M. [3, 8]: 0.24 ± 0.03
IL-10 Mean ± S.E.M. [3, 8]: 0.086 ± 0.01
IL-15 Mean ± S.E.M. [3, 8]: 0.11 ± 0.02
LEPTIN Mean ± S.E.M. [3, 8]: 0.43 ± 0.11
MCP-1 Mean ± S.E.M. [3, 8]: 0.10 ± 0.02
MIP-1 alpha Mean ± S.E.M. [3, 8]: 0.08 ± 0.02
Rantes (CCL5) Mean ± S.E.M. [3, 8]: 0.18 ± 0.02
SCF Mean ± S.E.M. [3, 8]: 0.32 ± 0.07
TNF-alpha Mean ± S.E.M. [3, 8]: 0.18 ± 0.02
VEGF Mean ± S.E.M. [3, 8]: 0.21 ± 0.03
pattern separation ability (exploration of novel vs familiar object on P2) (GWI rats [4]; 40 mg/kg oral gavage): remained impaired
pattern separation ability (exploration of novel vs familiar object on P2) (GWI rats [4]; 80 mg/kg oral gavage): remained impaired
pattern separation ability (exploration of novel vs familiar object on P2) (GWI rats [4]; 160 mg/kg oral gavage): displayed an ability for pattern separation
total object exploration time between groups in Trial-3 (GWI rats [4]; GWI rats, 40, 80 and 160 mg/Kg groups vs naive and VEH, one-way ANOVA): did not show ditierences between groups
expression of 20 oxidative stress genes increased in GWI rats ([5]; 80 mg/kg): normalized to control levels
expression of 20 oxidative stress genes increased in GWI rats ([5]; 160 mg/kg): normalized to control levels
expression of 4 oxidative stress response genes (Prdx6, Sod2, Sqstm1, Srxn1) ([5]; vs GWI rats receiving VEH): completely normalized
